Assay results published in patent US9085541B2, “Process for producing imine compounds for combating invertebrate pests” (priority 2010, dated 2015).

Tested on: tobacco budworm (Heliothis virescens)
Experiment: Tobacco budworm (Heliothis virescens) I: 96-well microtiter plates with insect diet and eggs, egg and larval mortality
Format: in vivo
Conditions: 120 h, read-out: mortality (egg and larval mortality, visually assessed)
Experimental: B.1 Tobacco Budworm (Heliothis virescens) I
For evaluating control of tobacco budworm (Heliothis virescens) the test unit consisted of 96-well-microtiter plates containing an insect diet and 15-25 H. virescens eggs. The compounds were formulated using a solution containing 75% v/v water and 25% v/v DMSO. Different concentrations of formulated compounds were sprayed onto the insect diet at 10 μl, using a custom built micro atomizer, at two replications. After application, microtiter plates are incubated at about 28±1° C. and about 80±5% relative humidity for 5 days. Egg and larval mortality is then visually assessed.

Compound: Cc1cc(C2=NOC(c3cc(Cl)cc(Cl)c3)(C(F)(F)F)C2)ccc1C=NNC(=O)NCC(F)(F)F (centres unmarked) [Compound 1-1, 4-[5-(3,5-dichloro-phenyl)-5-trifluoromethyl-4,5-dihydro-isoxazol-3-yl]-2-methyl-benzaldehyde-4-trifluoroethylsemicarbazone]
- mortality at 2500 ppm: ≥ 75%

Compound: CC(=NNC(=O)NCC(F)(F)F)c1ccc(C2=NOC(c3cc(Cl)cc(Cl)c3)(C(F)(F)F)C2)cc1C (centres unmarked) [Compound 1-19, 1-{4-[5-(3,5-dichloro-phenyl)-5-trifluoromethyl-4,5-dihydro-isoxazol-3-yl]-2-methyl-phenyl}-ethanone-4-trifluoroethylsemicarbazone]
- mortality at 2500 ppm: ≥ 75%
